Data published in patent US11524055B2, “Methods for treating diseases mediated by ERBB4-positive pro-inflammatory macrophages” (Children's Hospital Los Angeles, priority 2015, dated 2022).

System: M1-polarized Mø (classically activated BMDMs)
Assay: Cell Titer Blue (resazurin-based) cell viability assay, classically activated (M1) BMDMs
Design: species or system mouse
Conditions: 1 h pre-treatment, then 100 ng/ml NRG4 and 100 ng/ml LPS
Protocol: (FIG. 8A) Classically activated (M1) or alternatively activated (M2) BMDMs were treated with NRG4 (100 ng/ml) for 48 hours and analyzed by resazurin-based cell titer assay to assess cell numbers compared to control. (FIG. 8B) Classically activated BMDMs pre-incubated for 30 minutes with or without 2 μg/ml ErbB4 neutralizing antibody (E4BA), and treated with or without NRG4 (100 ng/ml) for 48 hours, were stained for cleaved caspase-3. […] (FIG. 8C) Classically activated BMDMs treated with NRG4 (100 ng/ml) for 48 hours were stained for annexin V and propidium iodide (PI), and analyzed by flow cytometry to determine apoptotic cells. n=3-6 independent experiments for each panel. Error bars represent SEM. *, p<0.05; **, p<0.01.
(FIG. 9B) Classically activated BMDMs were pre-treated for 1 hour with metalloprotease inhibitor (GM6001, 10 γ-secretase inhibitor (DAPT, 10 or ADAM17 inhibitor (GW280264X, 3 μM) followed by 100 ng/ml NRG4 and 100 ng/ml LPS. Percent cell viability was analyzed by rezasurin-based cell titer assay. Error bars represent SEM. ***, p<0.001. (FIG. 9C) Immunofluorescence analysis of ErbB4 localization to the mitochondria of classically activated BMDMs treated with or without NRG4 (100 ng/ml) for 48 hours. Arrows point to representative cells with ErbB4/mitochondrial overlap. n=4 independent experiments.
IFNγ/LPS-treated Mø were exposed to NRG4 (100 ng/ml)+/−ErbB4 blocking antibody (E4BA; 2 μg/ml) for 48 h and counted by Cell Titer Blue assay (Promega). n=4. *, p<0.01.
For BMDMs, adherent cells were washed at 3 days and re-fed with M-CSF containing media until experimentation at day 7-8. For M1 polarization, cells were pre-treated with 100 U/ml IFNγ for 16 hours, then stimulated with 100 ng/ml LPS.
BMDMs were plated in 96 well plates at 40,000 cells per well. Cells were washed and plated in DMEM with 10% heat-inactivated FBS, 100 U/ml penicillin and streptomycin, and given 100 U/ml IFNγ overnight. […] Relative cell numbers were determined by Cell Titer Blue (resazurin-based assay) following manufacturer's instructions (Promega, G8081). […]

Row | Molecule | Effect on NRG4-induced cell death (percent cell viability) (inhibitor 3 μM) | Effect on NRG4-induced cell death (percent cell viability) (inhibitor 10 μM)
1 | GW280264X | protected against the NRG4-induced cell death | 
2 | C[C@H](NC(=O)Cc1cc(F)cc(F)c1)C(=O)N[C@H](C(=O)OC(C)(C)C)c1ccccc1 [DAPT] |  | protected against the NRG4-induced cell death
3 | CNC(=O)[C@H](Cc1c[nH]c2ccccc12)NC(=O)[C@@H](CC(=O)NO)CC(C)C [GM6001] |  | protected against the NRG4-induced cell death
